Laboratory results published in article PMC7125926 (Antiviral Research, 2015).
Where “and” joins values, the source holds several entries; their conditions need not be identical. Identical values can stand only once. Entries after “also recorded” stand apart in the source; their conditions may differ. Counter-ions that a name gives are not always drawn. Like-named read-outs stand apart in the source and are kept apart here.

What was measured:
[1] = tested on: PR8 (H1N1) influenza virus; type: cell-based
[2] = tested on: IP-10; assay: tissue or blood; type: cell-based, mouse
[3] = tested on: influenza virus; details: mouse, cited from earlier work
[4] = MTT assay of drug toxicity in mouse lung slices; type: cell-based
[5] = tested on: influenza virus; type: in vivo, mice; details: Fig. S5
[6] = tested on: influenza A virus; details: ref An et al., 2014; cited from earlier work
[7] = read-out: IP-10-EC50: 50% effective concentration determined by ELISA of IP-10
[8] = read-out: NA-EC50: 50% effective concentration determined by NA activity assay
[9] = Mus musculus, 48 h, read-out: IP-10-EC50: 50% effective concentration determined by ELISA of IP-10

In the case of CCCCC/C=C/C=C1/C(=O)C=C[C@@H]1C/C=C\CCCC(=O)O [15d-PGJ2, 15-deoxy-Δ^12,14-prostaglandin J2], the “effect on virus replication / NA activity in lung slices (in words)” value [1] is reported as “neither inhibited virus replication”, the “effect on IP-10 levels in lung slices (in words)” value (from here on “effect on IP-10 levels”) [2] is reported as “dose dependently decreased IP-10 levels” and the EC50 [2, 7] is reported as 0.2 µM. For the same compound, the “inhibition of virus replication” value ([3]; in vivo) was “does not inhibit virus replication”, the “mice protected from death against lethal influenza infection” value ([3]; in vivo) was 79% and the “In vivo: the protection effect of mice from lethal influenza infection” value (from here on “In vivo: the protection effect of mice”) [3] was “+”.
In the case of CN(C)CCCOc1nn(Cc2ccccc2)c2ccccc12 [Benzydamine], the CC50 at 48 h [4] is reported as 113 µM, the “effect on virus replication / NA activity in lung slices (in words)” value [1] is reported as “inhibited neither” and the “effect on IP-10 levels” value [2] is reported as “inhibited neither”. For the same compound, the “protection of mice from lethal doses of influenza virus infection (in words)” value (“protection of mice” for short) [5] was “failed to protect mice” and the “antiviral activity in MDCK cells (in words)” value (“antiviral activity” below) [6] was “known antiviral activity”.
With Clc1ccccc1C(c1ccccc1)(c1ccccc1)n1ccnc1 [Clotrimazole] the CC50 at 48 h [4] was 16.3 µM, the “effect on virus replication / NA activity in lung slices (in words)” value [1] was “inhibited neither” and the “effect on IP-10 levels” value [2] was “inhibited neither”. The “protection of mice” value [5] was “failed to protect mice” and the “antiviral activity” value [6] was “known antiviral activity”.
In the case of CCN(CC)CCOC(=O)C1(C2CCCCC2)CCCCC1 [Dicyclomine], the “effect on IP-10 levels” value [2] is reported as “inhibited neither”.
In the case of O=C(O[C@@H]1Cc2c(O)cc(O)cc2O[C@@H]1c1cc(O)c(O)c(O)c1)c1cc(O)c(O)c(O)c1 [EGCG], the “effect on virus replication / NA activity in lung slices (in words)” value [1] is reported as “dose dependently decrease NA levels”, the EC50 [1, 8] is reported as 50.1 µM and the “effect on IP-10 levels” value [2] is reported as “dose dependently decrease”. The EC50 [2, 7] was 3.3 µM and the “In vivo: the protection effect of mice” value [3] was “+”.
In the case of CC(C)OC(=O)C(C)(C)Oc1ccc(C(=O)c2ccc(Cl)cc2)cc1 [Fenofibrate], the CC50 at 48 h [4] is reported as > 200 µM, the “effect on virus replication / NA activity in lung slices (in words)” value [1] is reported as “inhibited neither” and the “effect on IP-10 levels” value [2] is reported as “inhibited neither”. The “protection of mice” value [5] was “failed to protect mice” and the “antiviral activity” value [6] was “known antiviral activity”.
For CC(C)=C1C/C=C(\C)CC/C=C(\C)CC1=O [Gemacrone], the “effect on virus replication / NA activity in lung slices (in words)” value [1] was “efficiently inhibited virus replication”, the EC50 [1, 8] was 23.1 µM and the EC50 [2, 7] was 17.6 µM. For the same compound, the “In vivo: the protection effect of mice” value [3] was “+”.
With CCN(CC)CCOC(=O)C(Cc1cccc2ccccc12)CC1CCCO1 (centres unmarked) [Nafronyl oxalate] the CC50 at 48 h [4] was 122 µM, the “effect on virus replication / NA activity in lung slices (in words)” value [1] was “not showing any antiviral activity” and the “effect on IP-10 levels” value [2] was “inhibited the inflammatory response”. The EC50 [2, 9] was 22.1 µM and the “antiviral activity” value [6] was “known antiviral activity”.
With CCCC(C(=O)OCCN(CC)CC)(c1ccccc1)c1ccccc1 [Proadifen] the CC50 at 48 h [4] was 32.2 µM, the “effect on virus replication / NA activity in lung slices (in words)” value [1] was “inhibited neither” and the “effect on IP-10 levels” value [2] was “inhibited neither”. For the same compound, the “protection of mice” value [5] was “failed to protect mice” and the “antiviral activity” value [6] was “known antiviral activity”.
With NC(=O)c1ncn([C@@H]2O[C@H](CO)[C@@H](O)[C@H]2O)n1 [Ribavirin, ribavirin] the CC50 at 48 h [4] was > 200 µM, the “effect on virus replication / NA activity in lung slices (in words)” value [1] was “dose dependent inhibition; also recorded: efficiently inhibited virus replication” and the EC50 ([1]; read-out: NA-EC50: 50% effective concentration determined by NA inhibition) was 25.4 µM and 28.3 µM and 17.7 µM. The EC50 [2, 9] was 21.8 µM, the EC50 ([2]; Mus musculus, 48 h, read-out: IP-10-EC50: 50% effective concentration determined by IP-10 inhibition) was 21.8 µM and the EC50 ([2]; read-out: IP-10-EC50: 50% effective concentration determined by IP-10 inhibition) was 17.8 µM and 20.6 µM and 14.2 µM.
With C[S+]([O-])c1ccc(-c2nc(-c3ccncc3)c(-c3ccc(F)cc3)[nH]2)cc1 (centres unmarked) [SB203580] the CC50 at 48 h [4] was > 100 µM, the “effect on virus replication / NA activity in lung slices (in words)” value [1] was “neither inhibited virus replication” and the “effect on IP-10 levels” value [2] was “dose dependently decreased IP-10 levels”. For the same compound, the “In vivo: the protection effect of mice” value [3] was “+”.
With N#CC(=C(/N)Sc1ccccc1N)/C(C#N)=C(/N)Sc1ccccc1N [U0126] the “effect on virus replication / NA activity in lung slices (in words)” value [1] was “dose dependent inhibition; also recorded: dose dependently decrease NA levels”, the EC50 [1, 8] was 12 µM and the “effect on IP-10 levels” value [2] was “dose dependently decrease”. The EC50 [2, 7] was 1.3 µM and the “In vivo: the protection effect of mice” value [3] was “+”.
